In the supplement of paper PMC10307832:

Key:
Assay in all cases: relative viability (nuclei count vs DMSO), 5 days (fraction); higher = more cells survive
[1] = compound: CN1C=C(C2=CC=CC=C21)/C=C\3/C4=C(C=CC=N4)NC3=O + Nc1ncn([C@H]2C[C@H](O)[C@@H](CO)O2)c(=O)n1 [Decitabine] (partner 2 µM)
Outline: (§1)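 Lung cancer cell lines were pin-tool dosed in 1536-well plates on the day after seeding, with either a lone drug or a fixed anchor-drug dose plus five library-drug doses (not always all listed) in √10 steps. Nuclei were counted on 4× images after 5 days. Relative viability is the ratio of treated-well to vehicle-well nuclei counts, with each value a median of duplicate plates.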

Trametinib + Luminespib = compound: CC(=O)Nc1cccc(-n2c(=O)n(C3CC3)c(=O)c3c(Nc4ccc(I)cc4F)n(C)c(=O)c(C)c32)c1 [Trametinib] + CCNC(=O)c1noc(-c2cc(C(C)C)c(O)cc2O)c1-c1ccc(CN2CCOCC2)cc1 [Luminespib] (partner 0.01 µM)
Outline: as §1

[2] = compound: CN1C=C(C2=CC=CC=C21)/C=C\3/C4=C(C=CC=N4)NC3=O + CC(=O)Nc1cccc(-n2c(=O)n(C3CC3)c(=O)c3c(Nc4ccc(I)cc4F)n(C)c(=O)c(C)c32)c1 [Trametinib] (partner 0.02 µM)
Outline: as §1

Trametinib + Decitabine = compound: CC(=O)Nc1cccc(-n2c(=O)n(C3CC3)c(=O)c3c(Nc4ccc(I)cc4F)n(C)c(=O)c(C)c32)c1 [Trametinib] + Nc1ncn([C@H]2C[C@H](O)[C@@H](CO)O2)c(=O)n1 [Decitabine] (partner 2 µM)
Outline: as §1

Cell Line	relative viability ([1]; first compound 0.02 µM)	relative viability ([1]; first compound 0.06325 µM)	relative viability ([1]; first compound 0.2 µM)	relative viability ([1]; first compound 0.6325 µM)	relative viability ([1]; first compound 2 µM)	relative viability (Trametinib + Luminespib; first compound 0.0025 µM)	relative viability (Trametinib + Luminespib; first compound 0.007906 µM)	relative viability (Trametinib + Luminespib; first compound 0.025 µM)	relative viability (Trametinib + Luminespib; first compound 0.07906 µM)	relative viability (Trametinib + Luminespib; first compound 0.25 µM)	relative viability ([2]; first compound 0.02 µM)	relative viability ([2]; first compound 0.06325 µM)	relative viability ([2]; first compound 0.2 µM)	relative viability ([2]; first compound 0.6325 µM)	relative viability ([2]; first compound 2 µM)	relative viability (Trametinib + Decitabine; first compound 0.0025 µM)	relative viability (Trametinib + Decitabine; first compound 0.007906 µM)	relative viability (Trametinib + Decitabine; first compound 0.025 µM)	relative viability (Trametinib + Decitabine; first compound 0.07906 µM)	relative viability (Trametinib + Decitabine; first compound 0.25 µM)
NCI-H838	0.431	0.447	0.446	0.433	0.449	0.289	0.291	0.247	0.204	0.208	0.467	0.413	0.527	0.469	0.459	0.466	0.416	0.457	0.448	0.403
PC-14	0.218	0.209	0.178	0.23	0.226	0.125	0.147	0.127	0.152	0.147	0.713	0.69	0.692	0.747	0.78	0.229	0.184	0.286	0.145	0.125
NCI-H358	0.233	0.186	0.195	0.204	0.246	0.264	0.18	0.132	0.107	0.11	0.12	0.127	0.116	0.136	0.117	0.2	0.191	0.142	0.209	0.155
NCI-H1915	0.242	0.258	0.287	0.573	0.53	0.823	0.55	0.297	0.204	0.123	0.3	0.32	0.293	0.303	0.285	0.268	0.248	0.24	0.227	0.188
201T	0.857	0.891	0.859	0.885	0.917	1.08	0.866	0.856	0.852	0.8	0.758	0.727	0.754	0.797	0.763	0.854	0.743	0.765	0.782	0.749
NCI-H1437	0.593	0.591	0.527	0.664	0.668	1.12	0.923	0.709	0.627	0.602	0.596	0.593	0.545	0.453	0.531	0.574	0.471	0.557	0.394	0.431
A-427	0.632	0.479	–	0.557	0.651	0.805	0.871	0.691	0.661	0.297	0.796	0.721	–	0.708	0.813	0.522	0.585	0.541	0.525	0.418
BEN	0.691	0.634	0.513	0.623	0.781	0.269	0.374	0.154	0.379	0.377	1.05	0.981	1	0.966	1.18	0.768	0.663	0.5	0.506	0.654
